# Experimental data as given in PMC4755933 (Journal of medicinal chemistry, 2015).
# How the values were obtained:
# TRIM24(PHD-bromo) = target: T1, TRIM24(PHD-bromo) (Homo sapiens, UniProt O15164); conditions: TRIM24 AlphaLisa assay in HeLa cells, in words
# T1 sequence (O15164 824-1006 limits assumed): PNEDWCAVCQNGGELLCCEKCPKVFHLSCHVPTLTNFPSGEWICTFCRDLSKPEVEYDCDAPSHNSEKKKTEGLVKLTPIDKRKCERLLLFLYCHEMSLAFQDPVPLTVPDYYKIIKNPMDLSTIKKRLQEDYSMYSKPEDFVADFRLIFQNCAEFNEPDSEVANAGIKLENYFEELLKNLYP
# bromodomain of TRIM24 = target: T2, bromodomain of TRIM24 (Homo sapiens, UniProt O15164); experiment: AlphaScreen biochemical bromodomain-H3K23; format: binding; conditions: from TRIM24 IC50
# T2 sequence (O15164 899-1004 limits assumed): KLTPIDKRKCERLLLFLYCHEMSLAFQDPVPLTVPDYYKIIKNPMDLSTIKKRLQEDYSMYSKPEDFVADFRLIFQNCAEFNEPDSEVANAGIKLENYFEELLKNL
# [1] = CACO-2 permeability assay
# panel of 32 bromodomains = conditions: 1 μM concentration
Compound,ligand efficiency (LE) (bromodomain of TRIM24),also measured
"Cn1cnc(S(=O)(=O)Nc2cc3c(cc2Oc2ccc(OCc4ccccc4)cc2)n(C)c(=O)n3C)c1 [Compound 6, N-{6-[4-(benzyloxy)phenoxy]-1,3-dimethyl-2-oxo-2,3-dihydro-1H-1,3-benzodiazol-5-yl}-1-methyl-1H-imidazole-4-sulfonamide]",,cellular activity (TRIM24(PHD-bromo)): no cellular activity
Cc1nc(-c2ccc3c(c2)CC(=O)N3C)cs1 [Compound 1],0.41,
"CC(C)COc1cccc(Oc2ccc3c(c2)n(C)c(=O)n3C)c1 [Compound 7j, 1,3-dimethyl-5-[3-(2-methylpropoxy)phenoxy]-2,3-dihydro-1H-1,3-benzodiazol-2-one]",,cellular activity (TRIM24(PHD-bromo)): no cellular activity
"Cn1c(=O)n(C)c2cc(NS(=O)(=O)c3ccc(C4CCCCC4)cc3)ccc21 [Compound 5e, 4-cyclohexyl-N-(1,3-dimethyl-2-oxo-2,3-dihydro-1H-1,3-benzodiazol-5-yl)benzene-1-sulfonamide]",0.28,
COc1ccc(Oc2cc3c(cc2NS(=O)(=O)c2ccccc2)n(C)c(=O)n3C)cc1 [Compound 5g],0.26,
"CCCOc1cc(OCCCCN(C)C)cc(Oc2cc3c(cc2NS(=O)(=O)c2ccc(OC)c(OC)c2)n(C)c(=O)n3C)c1 [Compound 8i, N-(6-{3-[4-(dimethylamino)butoxy]-5-propoxyphenoxy}-1,3-dimethyl-2-oxo-2,3-dihydro-1H-1,3-benzodiazol-5-yl)-3,4-dimethoxybenzene-1-sulfonamide]",,interactions against 26 other bromodomains (panel of 32 bromodomains): No interactions were detected

# More lines, main results first:
ligand efficiency (LE) (bromodomain of TRIM24),Compound,also measured
0.23,"COc1ccc(S(=O)(=O)Nc2cc3c(cc2Oc2cccc(OCc4ccccc4)c2)n(C)c(=O)n3C)cc1OC [Compound 7b, N-{6-[3-(benzyloxy)phenoxy]-1,3-dimethyl-2-oxo-2,3-dihydro-1H-1,3-benzodiazol-5-yl}-3,4-dimethoxybenzene-1-sulfonamide]",CACO-2 flux from the apical to basolateral side (Papp) [1]: 21 Papp×10^−6 cm·s^−1
0.27,"CCCOc1cccc(Oc2cc3c(cc2NS(=O)(=O)c2ccc(OC)c(OC)c2)n(C)c(=O)n3C)c1 [Compound 7e, N-[1,3-dimethyl-2-oxo-6-(3-propoxyphenoxy)-2,3-dihydro-1H-1,3-benzodiazol-5-yl]-3,4-dimethoxybenzene-1-sulfonamide]",
